Activity calls are given as the source filed them. The calls are words filed in the database; no cut-off is given here.
How the values were obtained:
Rattus norvegicus [1] = assay: Anticoagulant activity in Sprague-Dawley rat assessed as change in factor 10 content in blood at 0.025 mg/kg, po after 10 days (reference value: 58.1%+/-1.8 %); format: functional
Rattus norvegicus [2] = assay: Anticoagulant activity in Sprague-Dawley rat assessed as change in factor 10 content in blood at 0.25 mg/kg, po after 4 days (reference value: 60.6%+/-3.0 %); format: functional
Rattus norvegicus [3] = assay: Anticoagulant activity in Sprague-Dawley rat assessed as change in factor 10 content in blood at 0.025 mg/kg, po after 4 days (reference value: 60.6%+/-3.0 %); format: functional
Rattus norvegicus [4] = assay: Anticoagulant activity in orally dosed Sprague-Dawley rat; format: functional, organism-based
Rattus norvegicus [5] = assay: Anticoagulant activity in Sprague-Dawley rat assessed as change in factor 10 content in blood at 2.5 mg/kg, po after 10 days (reference value: 58.1%+/-1.8 %); format: functional
Rattus norvegicus [6] = assay: Anticoagulant activity in Sprague-Dawley rat assessed as change in prothrombin time at 2.5 mg/kg, po after 10 days (Rvb=12.9+/-0.7 sec); format: functional
Rattus norvegicus [7] = assay: Anticoagulant activity in Sprague-Dawley rat assessed as change in factor 10 content in blood at 0.25 mg/kg, po after 10 days (reference value: 58.1%+/-1.8 %); format: functional
Rattus norvegicus [8] = species on record: Rattus norvegicus; assay: Cytotoxicity in Sprague-Dawley rat; format: organism-based; conditions: in vivo
Rattus norvegicus [9] = assay: Anticoagulant activity in Sprague-Dawley rat assessed as change in prothrombin time at 0.025 mg/kg, po after 4 days (Rvb=12.8+/-0.5 sec); format: functional
Rattus norvegicus [10] = assay: Anticoagulant activity in Sprague-Dawley rat assessed as change in factor 7 content in blood at 0.25 mg/kg, po after 4 days (reference value: 400%+/-33.2%); format: functional
Rattus norvegicus [11] = assay: Potentiation of warfarin-induced anticoagulant activity in Sprague-Dawley rat assessed as change in prothrombin time at 2.5 mg/kg, po after 10 days (Rvb= 12.9+/-0.7 sec); format: functional
Rattus norvegicus [12] = assay: Potentiation of warfarin-induced anticoagulant activity in Sprague-Dawley rat assessed as change in factor 7 level at 2.5 mg/kg, po after 10 days (reference value: 321.3 %+/-14.7%); format: functional
Rattus norvegicus [13] = assay: Anticoagulant activity in Sprague-Dawley rat assessed as reduction factor 7 content in blood at 2.5 mg/kg, po after 10 days (reference value: 321.3%+/-14.7 %); format: functional; set-up: scale not given: the % may be the effect or the level left
Rattus norvegicus [14] = assay: Anticoagulant activity in Sprague-Dawley rat assessed as change in factor 7 content in blood at 0.025 mg/kg, po after 4 days (reference value: 400%+/-33.2%); format: functional
Rattus norvegicus [15] = assay: Anticoagulant activity in Sprague-Dawley rat assessed as change in factor 10 content in blood at 2.5 mg/kg, po after 4 days (reference value: 60.6%+/-3.0 %); format: functional
Rattus norvegicus [16] = assay: Potentiation of warfarin-induced anticoagulant activity in Sprague-Dawley rat assessed as change in factor 10 level at 2.5 mg/kg, po after 10 days (Rvb =58.1%+/-1.8%); format: functional
Rattus norvegicus [17] = assay: Anticoagulant activity in Sprague-Dawley rat assessed as change in prothrombin time at 2.5 mg/kg, po after 4 days ([…]); format: functional
Rattus norvegicus [18] = assay: Anticoagulant activity in Sprague-Dawley rat assessed as change in prothrombin time at 0.25 mg/kg, po after 4 days ([…]); format: functional
Rattus norvegicus [19] = assay: Anticoagulant activity in Sprague-Dawley rat assessed as change in factor 7 content in blood at 0.25 mg/kg, po after 10 days (reference value: 321.3%+/-14.7 %); format: functional
Rattus norvegicus [20] = assay: Anticoagulant activity in Sprague-Dawley rat assessed as change in factor 7 content in blood at 0.025 mg/kg, po after 10 days (reference value: 321.3%+/-14.7 %); format: functional
Rattus norvegicus [21] = assay: Anticoagulant activity in Sprague-Dawley rat assessed as change in prothrombin time at 0.025 mg/kg, po after 10 days ([…]); format: functional
Rattus norvegicus [22] = assay: Potentiation of warfarin-induced anticoagulant activity in Sprague-Dawley rat assessed as change in prothrombin time at 2.5 mg/kg, po after 4 days (Rvb= 12.8+/-0.5 sec); format: functional
Rattus norvegicus [23] = assay: Anticoagulant activity in Sprague-Dawley rat assessed as change in prothrombin time at 0.25 mg/kg, po after 10 days (Rvb=12.9+/-0.7 sec); format: functional
Rattus norvegicus [24] = assay: Anticoagulant activity in Sprague-Dawley rat assessed as change in factor 7 content in blood at 2.5 mg/kg, po after 4 days (reference value: 400%+/-33.2%); format: functional
Rattus norvegicus [25] = assay: Potentiation of warfarin-induced anticoagulant activity in Sprague-Dawley rat assessed as change in factor 7 level at 2.5 mg/kg, po after 4 days (reference value: 400 %+/-33.2%); format: functional
Rattus norvegicus [26] = assay: Potentiation of warfarin-induced anticoagulant activity in Sprague-Dawley rat assessed as change in factor 10 level at 2.5 mg/kg, po after 4 days (Rvb =60.6%+/-3.0%); format: functional

Row | Structure (SMILES) | Activity (Rattus norvegicus [1]) [%] | Activity (Rattus norvegicus [2]) [%] | Activity (Rattus norvegicus [3]) [%] | Activity (Rattus norvegicus [4]) | Activity (Rattus norvegicus [5]) [%] | PT (Rattus norvegicus [6]) [s] | Activity (Rattus norvegicus [7]) [%] | Activity (Rattus norvegicus [8]) | PT (Rattus norvegicus [9]) [s] | Activity (Rattus norvegicus [10]) [%] | PT (Rattus norvegicus [11]) [s] | Activity (Rattus norvegicus [12]) [%] | Activity (Rattus norvegicus [13]) [%] | Activity (Rattus norvegicus [14]) [%] | Activity (Rattus norvegicus [15]) [%] | Activity (Rattus norvegicus [16]) [%] | PT (Rattus norvegicus [17]) [s] | PT (Rattus norvegicus [18]) [s] | Activity (Rattus norvegicus [19]) [%] | PT (Rattus norvegicus [23]) [s] | also measured
1 | CC(=O)Oc1c2c(c(OC(C)=O)c3ccccc13)[C@]1(C)C=C[C@]2(C)C1 | 68 | 65.3 | 74.5 | inactive | 61 | 11.6 | 61.2 | Not Active | 11.2 | 351.3 | 35.4 | 35 | 286.8 | 346.8 | 64.3 | 7.7 | 11.8 | 11.6 | 304.7 | 11.7 | Activity (Rattus norvegicus [20]): 364%; PT (Rattus norvegicus [21]): 11.4 s; PT (Rattus norvegicus [22]): 40.5 s; Activity (Rattus norvegicus [24]): 370.8%; Activity (Rattus norvegicus [25]): 20.3%; Activity (Rattus norvegicus [26]): 4.8%
2 | CC(=O)Oc1c2c(c(OC(C)=O)c3ccccc13)[C@@]1(C)C[C@]2(C)[C@]2(C)O[C@@]21C | 64.2 | 61 | 73.3 | inactive | 61 | 11.6 | 59.8 | Not Active | 11.4 | 334.3 | 108.4 | 18.4 | 285.8 | 366.3 | 61 | 3.6 | 12.7 | 11.6 | 295.2 | 11.6 | Activity (Rattus norvegicus [20]): 350.3%; PT (Rattus norvegicus [21]): 11.6 s; PT (Rattus norvegicus [22]): 12 s; Activity (Rattus norvegicus [24]): 395.5%; Activity (Rattus norvegicus [25]): 264%; Activity (Rattus norvegicus [26]): 58.8%
3 | CC(=O)CC(c1ccccc1)c1c(O)c2ccccc2oc1=O (stereo not drawn) [WARFARIN] | – | 10 | – | – | – | – | 14.9 | – | – | 29.5 | – | – | – | – | – | – | – | 37 | 56.2 | 24.4 | –
